Assay results from US20210382058A1, “PATIENT SELECTION FOR TREATMENT OF MYC POSITIVE CANCERS WITH INDENOISOQUINOLINES” (Purdue Research Foundation, priority 2020, published 2021).
Where two headings read alike, the source gives them in different places.

Legend:
[1] = test system: MYC protein expression in MCF-7 breast cancer cells; assay: Western blotting of MYC protein level in MCF-7 cells; type: cell-based, human
Procedure, shortened: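 Immunoblotting with ECL detection quantified MYC, with GAPDH (1:2000) as reference and anti-MYC at 1:1000.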

[2] = test system: NCI-60 cancer cell lines; assay: NCI-60 cancer cell line drug screen (GI50, MGM); type: cell-based, human; conditions: Homo sapiens; for GI50: read-out: Antiproliferative Activities [GI50 (μM)]
Method: Cancer cells were incubated with the test compounds at five concentrations ranging from 100 μM to 10 nM for 48 h. […] The approximate average of GI50 values across the entire panel of NCI-60 cancer cell lines for each compound was recorded as the MGM value.

[3] = molecular target: T1, human topoisomerase I (Homo sapiens, UniProt P11387); conditions: relative topoisomerase I inhibition levels, previously determined, six levels (0 - 5, +++++ = 5); cited from earlier work
T1 sequence (P11387 1-765): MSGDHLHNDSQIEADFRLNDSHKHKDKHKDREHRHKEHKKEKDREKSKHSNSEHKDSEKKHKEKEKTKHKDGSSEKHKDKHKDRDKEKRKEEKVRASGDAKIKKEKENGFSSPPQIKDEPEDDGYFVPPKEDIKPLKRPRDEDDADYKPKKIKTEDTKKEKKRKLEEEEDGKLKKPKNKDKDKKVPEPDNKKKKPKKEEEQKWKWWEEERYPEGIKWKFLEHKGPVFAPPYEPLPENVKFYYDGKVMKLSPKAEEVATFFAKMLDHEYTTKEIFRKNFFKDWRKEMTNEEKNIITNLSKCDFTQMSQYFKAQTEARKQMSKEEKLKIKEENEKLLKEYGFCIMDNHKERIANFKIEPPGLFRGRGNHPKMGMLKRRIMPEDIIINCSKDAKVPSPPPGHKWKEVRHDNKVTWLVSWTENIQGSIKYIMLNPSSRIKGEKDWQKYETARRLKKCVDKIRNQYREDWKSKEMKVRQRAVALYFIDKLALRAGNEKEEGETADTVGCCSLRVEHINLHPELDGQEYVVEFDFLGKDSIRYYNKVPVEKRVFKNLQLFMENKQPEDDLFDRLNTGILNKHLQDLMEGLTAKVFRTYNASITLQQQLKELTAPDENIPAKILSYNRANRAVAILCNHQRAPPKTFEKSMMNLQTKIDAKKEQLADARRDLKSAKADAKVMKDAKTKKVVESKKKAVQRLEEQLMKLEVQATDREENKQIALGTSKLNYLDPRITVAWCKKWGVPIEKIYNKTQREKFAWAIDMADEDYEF

CNCCCn1c2c(c3ccc(F)cc3c1=O)C(=O)c1cc(OC)cnc1-2 [Compound 6]
minimal effective concentration ([1]; Homo sapiens, MCF7, western blotting, MCF-7 cells, 0.5, 1, 2, and 4 μM, 24 hours, read-out: MYC Inhibition): 0.5 to 1 µM
MYC-inhibitory effect (MYC protein, western blot) ([1]; MCF-7, 0.5, 1, 2, and 4 μM, 24 h): clear MYC-inhibitory effect
GI50 ([2]; 786-0, Renal Cancer, 786-0): 0.2 µM
GI50 ([2]; A498, Renal Cancer, A498): 0.37 µM
GI50 ([2]; A549, Non-Small Cell Lung Cancer, A549/ATCC): 0.11 µM
GI50 ([2]; ACHN, Renal Cancer, ACHN): 0.12 µM
GI50 ([2]; BT-549, Breast Cancer, BT-549): 0.58 µM
GI50 ([2]; CCRF-CEM, Leukemia, CCRF-CEM): 0.26 µM
GI50 ([2]; COLO 205, Colon Cancer, COLO 205): 0.07 µM
GI50 ([2]; DU-145, Prostate Cancer, DU-145): 0.2 µM
GI50 ([2]; EKVX, Non-Small Cell Lung Cancer, EKVX): 0.3 µM
GI50 ([2]; HCC 2998, Colon Cancer, HCC-2998): 1.15 µM
GI50 ([2]; HCT-15, Colon Cancer, HCT-15): 0.25 µM
GI50 ([2]; HCT-116, Colon Cancer, HCT-116): 0.14 µM
GI50 ([2]; HL-60, Leukemia, HL-60(TB)): 0.22 µM
GI50 ([2]; HOP-62, Non-Small Cell Lung Cancer, HOP-62): 0.14 µM
GI50 ([2]; HOP-92, Non-Small Cell Lung Cancer, HOP-92): 0.37 µM
GI50 ([2]; HT-29, Colon Cancer, HT29): 0.15 µM
GI50 ([2]; Hs-578T, Breast Cancer, HS 578T): 2.24 µM
GI50 ([2]; IGROV-1, Ovarian Cancer, IGROV1): 0.32 µM
GI50 ([2]; K562, Leukemia, K-562): 0.17 µM
GI50 ([2]; KM12, Colon Cancer, KM12): 0.24 µM
GI50 ([2]; LOX IMVI, Melanoma, LOX IMVI): 0.14 µM
GI50 ([2]; Leukemia, SR): 0.12 µM
GI50 ([2]; MCF7, Breast Cancer, MCF7): 0.03 µM
GI50 ([2]; MDA-MB-231, Breast Cancer, MDA-MB-231/ATCC): 0.7 µM
GI50 ([2]; MDA-MB-435, Melanoma, MDA-MB-435): 0.47 µM
GI50 ([2]; MDA-MB-468, Breast Cancer, MDA-MB-468): 0.22 µM
GI50 ([2]; MOLT-4, Leukemia, MOLT-4): 0.04 µM
GI50 ([2]; Malme-3M, Melanoma, MALME-3M): 0.32 µM
GI50 ([2]; Melanoma, M14): 0.31 µM
GI50 ([2]; NCI-H23, Non-Small Cell Lung Cancer, NCI-H23): 0.31 µM
GI50 ([2]; NCI-H226, Non-Small Cell Lung Cancer, NCI-H226): 0.16 µM
GI50 ([2]; NCI-H322M, Non-Small Cell Lung Cancer, NCI-H322M): 0.45 µM
GI50 ([2]; NCI-H460, Non-Small Cell Lung Cancer, NCI-H460): 0.05 µM
GI50 ([2]; NCI-H522, Non-Small Cell Lung Cancer, NCI-H522): 0.06 µM
GI50 ([2]; OVCAR-3, Ovarian Cancer, OVCAR-3): 0.26 µM
GI50 ([2]; OVCAR-4, Ovarian Cancer, OVCAR-4): 0.42 µM
GI50 ([2]; OVCAR-5, Ovarian Cancer, OVCAR-5): 0.35 µM
GI50 ([2]; OVCAR-8, Ovarian Cancer, OVCAR-8): 0.19 µM
GI50 ([2]; Ovarian Cancer, NCl/ADR-RES): 0.43 µM
GI50 ([2]; Prostate Cancer, PC-3): 0.37 µM
GI50 ([2]; RPMI-8226, Leukemia, RPMI-8226): 0.2 µM
GI50 ([2]; RXF 393, Renal Cancer, RXF 393): 0.32 µM
GI50 ([2]; Renal Cancer, U0-31): 0.13 µM
GI50 ([2]; SF-268, CNS Cancer, SF-268): 0.38 µM
GI50 ([2]; SF-295, CNS Cancer, SF-295): 0.19 µM
GI50 ([2]; SF-539, CNS Cancer, SF-539): 0.37 µM
GI50 ([2]; SK-MEL-2, Melanoma, SK-MEL-2): 1.6 µM
GI50 ([2]; SK-MEL-5, Melanoma, SK-MEL-5): 0.31 µM
GI50 ([2]; SK-MEL-28, Melanoma, SK-MEL-28): 1.44 µM
GI50 ([2]; SK-OV-3, Ovarian Cancer, SK-OV-3): 0.23 µM
GI50 ([2]; SN12C, Renal Cancer, SN12C): 0.21 µM
GI50 ([2]; SNB-19, CNS Cancer, SNB-19): 0.22 µM
GI50 ([2]; SNB-75, CNS Cancer, SNB-75): 0.25 µM
GI50 ([2]; SW-620, Colon Cancer, SW-620): 0.18 µM
GI50 ([2]; T47D, Breast Cancer, T-47D): 0.16 µM
GI50 ([2]; TK-10, Renal Cancer, TK-10): 0.33 µM
GI50 ([2]; U-251, CNS Cancer, U251): 0.11 µM
GI50 ([2]; UACC-62, Melanoma, UACC-62): 0.61 µM
GI50 ([2]; UACC-257, Melanoma, UACC-257): 0.49 µM
mean GI50 across NCI-60 panel (MGM) ([2]; average of GI50 values across the entire panel of NCI-60 cancer cell lines): 0.24 µM
Top1 Inhibiton [3]: + (weak inhibition, +, MYC expression inhibited at 4.0 μM)
